Numbers after ± are expanded uncertainties.
Columns and labels:
[1] = refractive index (Na D-line) (dimensionless); details: 101.33 kPa, Liquid
[2] = xn = mol fraction of the nth substance listed; details: 101 kPa, Liquid, x2 = 0
[3] = refractive index (Na D-line) (dimensionless); xn = mol fraction of the nth substance listed; details: 101 kPa, Liquid
[4] = 101 kPa, Liquid

NC1CCCCC1 [cyclohexylamine]
[1]
Details | refractive index
303.15 K | 1.45375 ± 0.00065
308.15 K | 1.45114 ± 0.00065
313.15 K | 1.44856 ± 0.00065
318.15 K | 1.44599 ± 0.00065
323.15 K | 1.44336 ± 0.00065

CCCCCCC [heptane] + CC(C)(C)O
[2]
Details | mass density [kg/m3]
303.15 K | 675.229 ± 0.66
308.15 K | 670.941 ± 0.66
313.15 K | 666.621 ± 0.67
318.15 K | 662.273 ± 0.68
323.15 K | 657.896 ± 0.68

[3], x2 = 0
Details | refractive index
303.15 K | 1.38259 ± 0.00063
308.15 K | 1.37995 ± 0.00063
313.15 K | 1.37731 ± 0.00063
318.15 K | 1.37463 ± 0.00063
323.15 K | 1.37197 ± 0.00063

NC1CCCCC1 [cyclohexylamine] + CCCCCCC
refractive index, [3]
Details | 303.15 K | 308.15 K | 313.15 K | 318.15 K | 323.15 K
x1 = 0.0501 | 1.38508 ± 0.00063 | 1.38246 ± 0.00063 | 1.37983 ± 0.00063 | 1.37719 ± 0.00063 | 1.37451 ± 0.00063
x1 = 0.1002 | 1.38768 ± 0.00063 | 1.38507 ± 0.00063 | 1.38246 ± 0.00063 | 1.37983 ± 0.00063 | 1.37717 ± 0.00063
x1 = 0.1501 | 1.39038 ± 0.00063 | 1.38778 ± 0.00063 | 1.38516 ± 0.00063 | 1.38255 ± 0.00063 | 1.37991 ± 0.00063
x1 = 0.2305 | 1.39503 ± 0.00063 | 1.39245 ± 0.00063 | 1.38984 ± 0.00063 | 1.38719 ± 0.00063 | 1.38449 ± 0.00063
x1 = 0.3004 | 1.3993 ± 0.00063 | 1.39673 ± 0.00063 | 1.3941 ± 0.00063 | 1.39149 ± 0.00063 | 1.38874 ± 0.00063
x1 = 0.401 | 1.40584 ± 0.00064 | 1.40324 ± 0.00064 | 1.40059 ± 0.00064 | 1.39797 ± 0.00064 | 1.39527 ± 0.00064
x1 = 0.4497 | 1.40915 ± 0.00064 | 1.40655 ± 0.00064 | 1.40392 ± 0.00064 | 1.40129 ± 0.00064 | 1.39851 ± 0.00064
x1 = 0.5597 | 1.41708 ± 0.00064 | 1.41446 ± 0.00064 | 1.41182 ± 0.00064 | 1.40915 ± 0.00064 | 1.40647 ± 0.00064
x1 = 0.6001 | 1.42001 ± 0.00064 | 1.41739 ± 0.00064 | 1.41478 ± 0.00064 | 1.41215 ± 0.00064 | 1.40951 ± 0.00064
x1 = 0.6498 | 1.4238 ± 0.00064 | 1.4212 ± 0.00064 | 1.41859 ± 0.00064 | 1.41595 ± 0.00064 | 1.41327 ± 0.00064
x1 = 0.6994 | 1.42771 ± 0.00064 | 1.4251 ± 0.00064 | 1.42248 ± 0.00064 | 1.41981 ± 0.00064 | 1.41719 ± 0.00064
x1 = 0.7999 | 1.43588 ± 0.00065 | 1.43327 ± 0.00065 | 1.43065 ± 0.00065 | 1.428 ± 0.00065 | 1.42528 ± 0.00065
x1 = 0.8992 | 1.44452 ± 0.00065 | 1.44189 ± 0.00065 | 1.43928 ± 0.00065 | 1.43667 ± 0.00065 | 1.43405 ± 0.00065
x1 = 1 | 1.45375 ± 0.00065 | 1.45114 ± 0.00065 | 1.44856 ± 0.00065 | 1.44599 ± 0.00065 | 1.44336 ± 0.00065

CC(C)(C)O [2-methylpropan-2-ol]
Details | mass density, 303.15 K [kg/m3] | mass density, 308.15 K [kg/m3] | mass density, 313.15 K [kg/m3] | mass density, 318.15 K [kg/m3] | mass density, 323.15 K [kg/m3] | refractive index, 303.15 K | refractive index, 308.15 K | refractive index, 313.15 K | refractive index, 318.15 K | refractive index, 323.15 K
[1] | – | – | – | – | – | 1.38222 ± 0.00062 | 1.37947 ± 0.00062 | 1.37667 ± 0.00062 | 1.37384 ± 0.00062 | 1.37097 ± 0.00062
[4] | 775.412 ± 0.49 | 770.193 ± 0.5 | 764.884 ± 0.51 | 759.488 ± 0.52 | 754.015 ± 0.52 | – | – | – | – | –

Source: the NIST ThermoML archive (doi:10.1021/je100484n)
